Patent publication US20230167437A1, “COMPOSITIONS FOR TREATING CANCER WITH KRAS MUTATIONS AND USES THEREOF” (Aadigen, LLC, priority 2020, published 2023)

Test system: SW403 tumor (Human colorectal cancer, 35G>T)
Experiment: SW403 tumor growth in vivo, combination with Capecitabine
Parameters: species or system mice
Conditions: Capecitabine 200 μg once a week
Procedure: It was also evaluated whether targeting mutant KRAS in combination with a chemotherapeutic agent can suppress tumor growth in vivo when administered intravenously using ADGN-100-Hy3 nanoparticles. Female nude mice 6-weeks of age were injected with either Human pancreatic carcinoma cell (Panc1-Luc) containing the 35G>A mutation, or Human colorectal cancer cells (SW403) containing 35G>T KRAS mutation (20×10^6 cells in 200 μl PBS). The animals were kept under pathogen-free conditions and fed and watered ad libitum, in cages of 2 to 4 animals (in compliance with recommended area surface/animal), in a dedicated room with a 12 h/12 h light/dark cycle at a constant temperature of 22° C. A period of 2 weeks was allowed for tumor development before the beginning of the experiments […]
Animal were injected ADGN/mRNA complex on day 1 and day 7. […] PANC-1 tumor size was evaluated by bioluminescence imaging. […] Semi-quantitative data of luciferase-positive tumor cell signals were obtained using the manufacturer's software (Living Image; PerkinElmer). Results were expressed as photons/second (photons/s). […] Results were then expressed as values relative to day 0. SW403 tumor size was evaluated every 7 days using caliper. Results were then expressed as values relative to day 0. […]

In the case of CCCCCOC(=O)Nc1nc(=O)n([C@@H]2O[C@H](C)[C@@H](O)[C@H]2O)cc1F [Capecitabine], the “reduction of SW403 tumor growth” value is reported as 38%.
